# Where “and” joins values, the source holds several entries; their conditions need not be identical. Identical values can stand only once. Square brackets hold non-standard residues; d marks the D form. Peptide text beside a SMILES is read from it.
# Key:
# [1] = Skin permeability, Franz Cell diffusion cell with artificial skin, Transdermal Diffusion Tester, BCA assay; format: in vitro ADME; conditions: for Average Permeation Rate After 1 Hour (%) / Average Permeation Rate After 24 Hours (%): 32° C., 1.0 mg/mL in PBS; for Average Permeation Rate After 1 Hour (%) / Papp at 1 h, 1 mg/mL: after 1 hour; for Papp at 1 h, 1 mg/mL: read-out: Average Permeability Coefficient (Kp) After 1 hour (converted); for Average Permeation Rate After 24 Hours (%) / Papp at 24 h, 1 mg/mL: after 24 hours; for Papp at 24 h, 1 mg/mL: read-out: Average Permeability Coefficient (Kp) After 24 hours
# Protocol: As used herein, the term “skin permeation rate” of a cyclic oligopeptide is measured using artificial skin (Start M, Merck), and refers to the percentage of the cyclic oligopeptide that penetrate the artificial skin after certain amount of time. For example, if 60% of the total amount of a cyclic oligopeptide of this disclosure has penetrated the artificial skin after 24 hours, then the skin permeation rate of the cyclic oligopeptide is 60% after 24 hours.
# As used herein, the term “skin permeability coefficient (Kp)” refers to the rate at which the cyclic oligopeptide penetrates the skin, as measured using artificial skin (Start M, Merck). In some embodiments, permeability coefficient (Kp)(cm/hr) is calculated with the following equation:
# [formula] wherein Q(mg) refers to the total amount of cyclic oligopeptide that pass through the artificial skin within a certain amount of time; A(cm^2) refers to the internal cross-section area of the artificial skin in a diffusion cell; T(hr) refers to the total amount of time of cyclic oligopeptide permeation; and ΔC(mg/mL) refers to the concentration difference of the cyclic oligopeptide between the two sides of the artificial skin. In some embodiments, the diffusion cell is a Franz Cell.
# Skin permeability of the cyclic oligopeptides generated in Example 1 was measured using Transdermal Diffusion Tester (TK-12D, Shanghai Kai Kai Industrial Co Ltd) and artificial skin (Start M, Merck). Three parallel experimental groups were set up for each sample. The skin permeability of cyclic oligopeptides was evaluated by the following steps: • 1) 2.0 mg cyclic oligopeptide was weighed and dissolved in 100 μL DMSO. Three parallel experimental groups were set up for each cyclic oligopeptide. The cyclic oligopeptide-containing solution was then slowly added dropwise to 1900 μL 1×PBS solution and mixed evenly to prepare a PBS solution with a final concentration of 1.0 mg/mL cyclic polypeptide. • 2) A magnetron was inserted into a Franz Cell diffusion cell, and an artificial skin was sandwiched in the middle of the diffusion cell with the smooth side of the artificial skin facing up. The diffusion cell was then fixed with clamps after assembly. • 3) 7.75 ml 1×PBS solution were then added to the diffusion cell without generating bubbles in the diffusion cell. The sampling port of the diffusion cell was then sealed with parafilm to reduce evaporation. • 4) The temperature of a Transdermal Diffusion Tester was then set to 32° C., and the magneton speed was set to 180 r/min. • 5) The assembled diffusion cell was then put into the Transdermal Diffusion Tester and preheated for 5-10 mins. • 6) 400 μL of 1.0 mg/mL cyclic oligopeptide solution prepared in step 1) was then added to the upper chamber of the diffusion cell, making it evenly dispersed on the surface of the artificial skin without air bubbles. The top port of the diffusion cell was then covered with parafilm to reduce evaporation. • 7) Starting from the time of adding the cyclic oligopeptide solution, samples of about 0.5 mL of the receiving solution were taken at six time points, 1 h, 2 h, 4 h, 8 h, 12 h and 24 h, using a plastic dropper to take out the samples from the sampling port of the diffusion cell. 0.5 mL of 1×PBS solution was added into the diffusion cell to restore the initial volume of the receiving solution. When sampling, the diffusion cell was tilted appropriately to avoid the generation of bubbles. The samples were then numbered and store at −20° C. • 8) A BCA Assay (Micro BCA Protein Assay Kit, Thermo Scientific) was conducted to measure the concentration of cyclic oligopeptide in samples obtained in step 7) (Actual Concentration of the cyclic oligopeptide at the particular time point). Three parallel groups were used. The weight of cyclic oligopeptide in each sample obtained in step 7) equals to Actual Concentration×0.5 mL. • 9) Permeation rate of each cyclic oligopeptide at each time point was calculated according to the following equation: […]
# Human IL-13 = Human IL-13 (Homo sapiens, UniProt P35225); experiment: Surface plasmon resonance (SPR) binding assay, BIAcore 8K plus, immobilized Fc-tagged IL-13; conditions: 25° C., human IL-13 with Fc-tag immobilized on CM5 chip, read-out: Binding Affinity (KD) for IL-13
# Protocol: A SPR assay was conducted to determine the binding affinity of the cyclic oligopeptides generated in Example 1 for IL-13 using a BIAcore 8K plus instrument (GE Healthcare). Human IL-13 with an Fc-tag was immobilized onto the surfaces of Series S Sensor CM5 (GE Healthcare) chips in the range of 5000 resonance units (RU). The binding kinetics were performed at 25° C. with a flow rate of 30 μL/min. The cyclic oligopeptides were analyzed in running buffer comprising 20 mM PBS, 2.7 mM KCl, […], 0.0500 Surfactant P20, pH 7.4, 1% DMSO, starting at 100 μM with gradient of ten two-fold dilutions using solvent correction mode.
# FIGS. 2C, 3C, 4C, 5C, 6C, 7C, 8C, 9C, 10C, 11C, and 12C provide SPR response curves for the cyclic oligopeptides generated in Example 1, wherein the x-axis represents time of reaction and y-axis represents altitude of response (Response Units).
# FIG. 2D = experiment: FIG. 2D
# Source text: Table printed on a drawing sheet, FIG. 2D
# The patent's description of the figure: FIG. 2A provides the mass spectrometry (MS) spectrum for Compound 1. FIG. 2B provides the high-performance liquid chromatography (HPLC) chromatogram for Compound 1. FIG. 2C provides surface plasmon resonance (SPR) assay curves showing the binding affinity of Compound 1 for IL-13, the x-axis represents time of reaction and y-axis represents altitude of response (Response Units). FIG. 2D illustrates skin permeation rate of Compound 1 for up to 24 hours. FIG. 2E illustrates average permeability coefficient (Kp) of Compound 1 for 1, 2, 4, 8, 12 and 24 hours.
# First reader's note: Substance name is taken from the legend of the plot printed above the table; the values are skin permeation in three replicates, their average and their range.
# FIG. 3D = experiment: FIG. 3D
# Protocol: Table printed on a drawing sheet, FIG. 3D
# The patent's description of the figure: FIG. 3A provides the MS spectrum for Compound 2. FIG. 3B provides the HPLC chromatogram for Compound 2. FIG. 3C provides SPR assay curves showing the binding affinity of Compound 2 for IL-13, the x-axis represents time of reaction and y-axis represents altitude of response (Response Units). FIG. 3D illustrates skin permeation rate of Compound 2 for up to 24 hours. FIG. 3E illustrates average permeability coefficient (Kp) of Compound 2 for 1, 2, 4, 8, 12 and 24 hours.
# First reader's note: The substance name is taken from the legend of the plot printed above the table; the values are three replicate permeation rates, their average and their range.
# FIG.4D = experiment: FIG.4D
# Protocol: Table printed on a drawing sheet, FIG.4D
# The patent's description of the figure: FIG. 4A provides the MS spectrum for Compound 3. FIG. 4B provides the HPLC chromatogram for Compound 3. FIG. 4C provides SPR assay curves showing the binding affinity of Compound 3 for IL-13, the x-axis represents time of reaction and y-axis represents altitude of response (Response Units). FIG. 4D illustrates skin permeation rate of Compound 3 for up to 24 hours. FIG. 4E illustrates average permeability coefficient (Kp) of Compound 3 for 1, 2, 4, 8, 12 and 24 hours.
# First reader's note: The substance name is printed only in the legend of the plot above the table; columns 2 to 4 are three replicate permeation measurements.
# FIG. 5D = experiment: FIG. 5D
# Protocol: Table printed on a drawing sheet, FIG. 5D
# The patent's description of the figure: FIG. 5A provides the MS spectrum for Compound 4. FIG. 5B provides the HPLC chromatogram for Compound 4. FIG. 5C provides SPR assay curves showing the binding affinity of Compound 4 for IL-13, the x-axis represents time of reaction and y-axis represents altitude of response (Response Units). FIG. 5D illustrates skin permeation rate of Compound 4 for up to 24 hours. FIG. 5E illustrates average permeability coefficient (Kp) of Compound 4 for 1, 2, 4, 8, 12 and 24 hours.
# First reader's note: The substance name is taken from the legend of the plot above the table on the same sheet; the values are skin permeation rates over time.
# FIG. 6D = experiment: FIG. 6D
# Protocol: Table printed on a drawing sheet, FIG. 6D
# The patent's description of the figure: FIG. 6A provides the MS spectrum of Compound 5. FIG. 6B provides the HPLC chromatogram for Compound 5. FIG. 6C provides SPR assay curves showing the binding affinity of Compound 5 for IL-13, the x-axis represents time of reaction and y-axis represents altitude of response (Response Units). FIG. 6D illustrates skin permeation rate of Compound 5 for up to 24 hours. FIG. 6E illustrates average permeability coefficient (Kp) of Compound 5 for 1, 2, 4, 8, 12 and 24 hours.
# First reader's note: The substance name Compound 5 comes from the legend of the plot printed above the table; the values are three replicate permeation measurements with their average and range.
# FIG. 7D = experiment: FIG. 7D
# Protocol: Table printed on a drawing sheet, FIG. 7D
# The patent's description of the figure: FIG. 7A provides the MS spectrum for Compound 6. FIG. 7B provides the HPLC chromatogram for Compound 6. FIG. 7C provides SPR assay curves showing the binding affinity of Compound 6 for IL-13, the x-axis represents time of reaction and y-axis represents altitude of response (Response Units). FIG. 7D illustrates skin permeation rate of Compound 6 for up to 24 hours. FIG. 7E illustrates average permeability coefficient (Kp) of Compound 6 for 1, 2, 4, 8, 12 and 24 hours.
# First reader's note: The substance name Compound 6 is taken from the legend of the plot printed above the table on the same sheet.
# Sequence of Human IL-13 (P35225 25-146): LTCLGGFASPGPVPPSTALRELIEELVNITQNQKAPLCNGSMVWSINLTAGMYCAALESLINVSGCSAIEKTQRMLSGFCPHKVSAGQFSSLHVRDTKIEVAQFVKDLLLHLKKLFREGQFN
Compound,Average Permeation Rate After 1 Hour (%) [1],Average Permeation Rate After 24 Hours (%) [1],"Papp at 1 h, 1 mg/mL [1]","Papp at 24 h, 1 mg/mL [1]",Kd (Human IL-13),Permeation Avg. (%) (FIG. 2D),Permeation Avg. (%) (FIG. 3D),Permeation Avg. (%) (FIG.4D),Permeation Avg. (%) (FIG. 5D),Permeation Avg. (%) (FIG. 6D),Permeation Avg. (%) (FIG. 7D)
"CC(C)[C@H]1NC(=O)[C@@H](Cc2ccccc2)NC(=O)[C@@H](CCCNC(=N)N)NC(=O)[C@@H]2CCCN2C(=O)[C@H](CCC(=O)O)NC(=O)[C@H](Cc2ccc(O)cc2)NC1=O [Compound 1, D-Arg D-Phe D- Val Tyr Glu Pro] (cyclo(EP[dR][dF][dV]Y))",18.54%,42.06%,11.1 ×10⁻⁶ cm/s,> 0.0278 ×10⁻⁶ cm/s,16 µM,23.80% and 30.38% and 34.53% and 39.28%,,,,,
"CC(C)[C@H]1NC(=O)[C@H]([C@@H](C)O)NC(=O)[C@H](CCCNC(=N)N)NC(=O)[C@H]2CCCN2C(=O)[C@@H](Cc2ccccc2)NC(=O)[C@H](CCC(=O)O)NC1=O [Compound 2, Arg Thr D-Val Glu D-Phe D-Pro] (cyclo(E[dF][dP]RT[dV]))",14.62%,30.51%,8.69 ×10⁻⁶ cm/s,,17.4 µM,,18.57% and 23.21% and 25.36% and 28.50%,,,,
"CC(C)[C@H]1NC(=O)[C@@H]([C@H](C)O)NC(=O)[C@H](CCC(=O)O)NC(=O)[C@H]2CCCN2C(=O)[C@H]2CCCN2C(=O)[C@H](Cc2c[nH]c3ccccc23)NC1=O [Compound 3, Glu D-Thr D-Val Trp D-Pro D-Pro] (cyclo(E[dT][dV]W[dP][dP]))",19.61%,36.59%,11.7 ×10⁻⁶ cm/s,,22.8 µM,,,24.16% and 28.65% and 31.31% and 34.61%,,,
"CC(C)[C@H]1NC(=O)[C@H](CCC(=O)O)NC(=O)[C@H](CCCNC(=N)N)NC(=O)[C@H]2CCCN2C(=O)[C@H]2CCCN2C(=O)[C@H](Cc2c[nH]c3ccccc23)NC1=O [Compound 4, Arg Glu D-Val Trp D-Pro D-Pro] (cyclo(E[dV]W[dP][dP]R))",17.28%,35.59%,10.3 ×10⁻⁶ cm/s,> 0.0278 ×10⁻⁶ cm/s,26.2 µM,,,,21.81% and 27.10% and 30.14% and 33.22%,,
"CC(C)[C@@H]1NC(=O)[C@H](Cc2c[nH]c3ccccc23)NC(=O)[C@H]2CCCN2C(=O)[C@H]2CCCN2C(=O)[C@H](CCC(=O)O)NC(=O)[C@H](CCCNC(=N)N)NC1=O [Compound 5, Trp Val Arg Glu D-Pro D-Pro] (cyclo(E[dP][dP]WVR))",,48.73%,13.4 ×10⁻⁶ cm/s,,47.1 µM,,,,,29.54% and 37.22% and 40.94% and 45.90%,
"CC(C)[C@H]1NC(=O)[C@@H]([C@H](C)O)NC(=O)[C@H](CCC(=O)O)NC(=O)[C@H](CCCNC(=N)N)NC(=O)[C@H](Cc2ccc(O)cc2)NC(=O)[C@H]2CCCN2C1=O [Compound 6, Tyr Arg Glu D-Thr D-Val D-Pro] (cyclo(E[dT][dV][dP]YR))",15.34%,33.86%,9.14 ×10⁻⁶ cm/s,,55.4 µM,,,,,,22.01% and 26.17% and 29.25% and 31.77%

# From patent US12180307B2, “Interleukin-13 binding cyclic oligopeptides and methods of use thereof” (B.A.I. LABORATORIES, LLC, priority 2022, dated 2024)
